Test results as given in PubChem BioAssay AID1343 (Sanford-Burnham Center for Chemical Genomics, 2008).
Calls of active or inactive are those of the source.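 Rule for the calls: active = survival of 63% or more, 10 points above the level seen with tunicamycin given alone; inactive = the rest.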

Test system: CSM14.1 tunicamycin-induced death, ATP luminescence, 48 h
Assay: rescue from tunicamycin-induced cell death, late-stage follow-up, mechanism study for ER stress death inhibitor project, undifferentiated CSM14.1, ATP content (AID 1343)
Conditions: at 25 µM; stronger effect = higher value

Structure (SMILES) | survival
COc1ccc(C2CC(=O)C3=C(C2)Nc2ccccc2NC3c2ccccc2C(F)(F)F)cc1OC (stereo unspecified) | 60% (inactive)
COc1ccc(C2CC(=O)C3=C(C2)Nc2ccccc2NC3c2cc(C)ccc2C)cc1 (stereo unspecified) | 57% (inactive)
CC1(C)CC(=O)C2=C(C1)Nc1ccccc1NC2c1ccc(-c2ccccc2)cc1 (stereo unspecified) | 77%
CCOc1cc(C2Nc3ccccc3NC3=C2C(=O)CC(c2ccc(OC)cc2)C3)cc(Cl)c1O (stereo unspecified) | 46% (inactive)
CSc1ccc(C2Nc3ccccc3NC3=C2C(=O)CC(c2ccccc2)C3)cc1 (stereo unspecified) | 59% (inactive)
CCCOc1ccc(C2Nc3ccccc3NC3=C2C(=O)CC(c2ccc(OC)c(OC)c2)C3)cc1 (stereo unspecified) | 74%
O=C1CC(c2ccccc2)CC2=C1C(c1c(F)cccc1Cl)Nc1ccccc1N2 (stereo unspecified) | 52% (inactive)
COc1ccc(C2CC(=O)C3=C(C2)Nc2ccccc2NC3c2cccc(Br)c2)cc1OC (stereo unspecified) | 64%
COc1ccc(C2CC(=O)C3=C(C2)Nc2ccccc2NC3c2cccc(C(F)(F)F)c2)cc1OC (stereo unspecified) | 65%
COc1ccc(C2CC(=O)C3=C(C2)Nc2ccccc2NC3c2cccc(Oc3ccccc3)c2)cc1OC (stereo unspecified) | 63%
CCOc1cccc(C2Nc3ccccc3NC3=C2C(=O)CC(c2ccc(OC)cc2)C3)c1 (stereo unspecified) | 55% (inactive)
